# Publication PMC10983001, “Development of Cytotoxic GW7604-Zeise’s Salt Conjugates as Multitarget Compounds with Selectivity for Estrogen Receptor- Positive Tumor Cells” (Journal of Medicinal Chemistry, 2024)
# What was measured:
# [1] = system: ERα in MCF-7 cells; test: Western blot analysis of ER downregulation; type: cell-based, human; conditions: MCF-7, 20 μM, 24 h
# Experimental: The exponentially growing cells were seeded at a density of 2.5 × 10^6 (MCF-7) and 3.0 × 10^6 (SKBr3) cells into 75 cm^2 flasks. The cells were incubated for 24 h in a humidified atmosphere (5% CO2/95% air) at 37 °C. For downregulation experiments, a stock solution of GW7604-Pent-PtCl3 in DMF was freshly prepared and diluted with DMEM containing 10% FCS to the desired concentration [final DMF concentration of 0.1% (v/v), final complex concentration of 20 μM]. The medium in the flasks was replaced with fresh cell culture medium containing the compound, and the flasks were incubated in a humidified atmosphere at 37 °C for 24 h. Afterward, cells were harvested (cell scratcher), and samples were lysed using a modified radio immunoprecipitation assay buffer [50 mM of TRIS (pH = 8.0), 150 mM NaCl, 0.5% NP-40, 50 mM NaF, 1 mM […], 1 mM phenylmethylsulfonyl fluoride, and protease inhibitors (EDTA-free; Roche, Basel, Switzerland)]. Total protein concentration was determined by employing the Bradford assay as described above, and samples were analyzed on the JESS ProteinSimple (Bio-Techne, Minneapolis, MN, USA) according to the manufacturer’s protocol. The following antibodies were used: GAPDH (no. 2118S, cell signaling), ERα (no. 8644S, cell signaling), and COX-2 (no. 12282, cell signaling). All primary antibodies were diluted with antibody diluents provided by ProteinSimple.
# [2] = system: TSA-201 cells; test: MTT assay of metabolic activity, noncancerous TSA-201; type: cell-based, human; conditions: 72 h
# Experimental: The GW7604-Alk-PtCl3 complexes (with exclusion of GW7604-Prop-PtCl3) were investigated for cytotoxic effects in SKBr3 (ER-negative, COX-2-positive, Figure 6), MCF-7 (ERα-positive, COX-negative, Figure 6), and noncancerous TSA-201 (human embryonal kidney) cells at concentrations of 10–30 μM using an established MTT (3-(4,5-dimethylthiazol-2-yl)-2,5-diphenyltetrazolium bromide) assay.[60],[69]
# After incubation for 72 h, the amounts of surviving, metabolically active cells were quantified based on their ability to transform the water-soluble yellow dye MTT to a purple formazan, which can be analyzed by UV–vis spectroscopy.
# The exponentially growing cells were seeded at a density of 1750 (MCF-7), 2000 (SKBr3), and 1250 (TSA-201) cells/well into clear flat-bottom 96-well plates in triplicate. Following 24 h of incubation at 37 °C in a humidified atmosphere (5% CO2/95% air), the compounds [freshly prepared stock solutions in DMF, diluted with DMEM to the desired concentration (final DMF concentration of 0.1% (v/v))] were added to reach the indicated concentrations. After another 72 h of incubation, the cellular metabolic activity was measured employing an MTT assay. By adding predissolved MTT reagent in PBS at a final concentration of 0.5 mg/mL, the metabolic activity can be determined via an enzymatic conversion to a purple formazan salt. After 3 h, the medium was aspirated, and 200 μL of DMSO was added to dissolve the formed formazan crystals. The absorbance was measured at 570 and 690 nm (turbidity assessment) using an EnSpire plate reader (PerkinElmer, Waltham, MA, USA). Solvent-treated cells without a compound served as the positive control. Metabolic activity was calculated by the following equation [drawing 1]
smiles,measurement,setting,value
"CCC(=C(c1ccc(O)cc1)c1ccc(C=CC(=O)OCCC[CH]2[CH2][Pt-]2([Cl])([Cl])[Cl])cc1)c1ccccc1.[K+] (mixture of isomers) [GW7604-Pent-PtCl3, Potassium trichlorido[η^2-(pent-4-en-1-yl (E)-3-(4-((E/Z)-1-(4-hydroxyphenyl)-2-phenylbut-1-en-1-yl)phenyl)acrylate)]platinate(II)]",ER downregulation (SERD effect),[1],nor downregulated the ER content
same,IC50,"[2]; MTT, read-out: IC50 TSA-210",> 30 µM
same,decrease of cell viability,"[2]; TSA-201, 30 μM",about 20%
